Our source for the IC50 and JAK3 protein level values is patent publication US20230093099A1, “COMPOUNDS AND METHODS OF TREATING CANCERS” (CULLGEN (SHANGHAI), INC., priority 2019, published 2023).

In one assay the test system is HL-60 cells. Nature of the assay: Cell viability assay (CellTiter-Glo) in HL-60 cells. The class given is cell-based. Conditions: Homo sapiens, 72 h, HL-60, APL, 3 days. As for the experimental part: MV4;11, RS4;11, Kasumi-1, HEL and other cells were treated with NVP-BSK805, TG101209 or selected degraders for 3 days at indicated concentrations following a 3-fold serial dilution.
(§1) HEL, RS4;11, MV4;11, Kasumi-1 and other cells were cultured at 37° C. with 5% CO2 in RPMI 1640 or DMEM Medium supplemented with 10% fetal bovine serum. Cells were authenticated using the short tandem repeat (STR) assays. Mycoplasma test results were negative.
Cells were seeded at a density of 5000 cells per well in 96-well assay plates and treated with test compounds following a 8-point or 12-point 3-fold serial dilution. Three days later, cell viability was determined using the CellTiter-Glo assay kit according to the manufacturer's instructions. The dose-response curves were determined and IC50 values were calculated using the GraphPad Prism software following a nonlinear regression (least squares fit) method.

Another assay has as its target T1, JAK3 (Homo sapiens, UniProt P52333).
T1 construct: immunoblot of JAK1/2/3 proteins expressed in HEL cells; endogenous in cells; host or cells: HEL cells
T1 sequence (P52333 1-1124): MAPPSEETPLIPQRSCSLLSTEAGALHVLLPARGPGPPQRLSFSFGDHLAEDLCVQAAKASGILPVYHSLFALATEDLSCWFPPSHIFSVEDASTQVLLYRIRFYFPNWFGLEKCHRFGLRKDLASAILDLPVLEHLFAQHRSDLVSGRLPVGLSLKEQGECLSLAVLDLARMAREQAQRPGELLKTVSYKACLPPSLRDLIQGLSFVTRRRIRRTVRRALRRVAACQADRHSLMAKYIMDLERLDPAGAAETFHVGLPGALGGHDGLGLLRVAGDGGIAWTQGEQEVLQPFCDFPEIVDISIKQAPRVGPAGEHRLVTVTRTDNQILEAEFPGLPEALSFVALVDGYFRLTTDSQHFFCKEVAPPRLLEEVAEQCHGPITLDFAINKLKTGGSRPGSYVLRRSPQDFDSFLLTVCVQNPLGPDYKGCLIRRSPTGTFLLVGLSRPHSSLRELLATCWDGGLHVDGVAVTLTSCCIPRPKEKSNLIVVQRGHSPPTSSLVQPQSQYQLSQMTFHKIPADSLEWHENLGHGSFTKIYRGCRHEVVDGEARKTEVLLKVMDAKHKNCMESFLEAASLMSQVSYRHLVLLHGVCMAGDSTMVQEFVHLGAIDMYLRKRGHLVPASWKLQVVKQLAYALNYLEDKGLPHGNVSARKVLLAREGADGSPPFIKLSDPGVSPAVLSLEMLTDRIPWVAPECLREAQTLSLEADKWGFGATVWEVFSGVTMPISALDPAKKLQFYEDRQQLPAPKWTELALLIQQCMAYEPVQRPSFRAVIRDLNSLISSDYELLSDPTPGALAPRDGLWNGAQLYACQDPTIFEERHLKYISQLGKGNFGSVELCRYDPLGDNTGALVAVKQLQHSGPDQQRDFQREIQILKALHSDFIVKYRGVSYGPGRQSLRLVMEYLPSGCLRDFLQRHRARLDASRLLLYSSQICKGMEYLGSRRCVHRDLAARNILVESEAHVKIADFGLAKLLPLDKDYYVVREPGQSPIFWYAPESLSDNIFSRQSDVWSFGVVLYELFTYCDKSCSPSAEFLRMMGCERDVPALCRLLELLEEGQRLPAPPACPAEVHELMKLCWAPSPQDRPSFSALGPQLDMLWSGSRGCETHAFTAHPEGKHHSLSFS
The assay is described as follows: Immunoblot of JAK3 protein level in RS4;11 cells. The class given is cell-based. As to conditions: immunoblot (FIG. 2). As for the experimental part:
To confirm JA-189 and JA-213 are true JAK degraders, HEL cell were treated with these two compounds at various compounds concentrations.
as §1
Rabbit anti-JAK1 antibody (3344S), anti-JAK2 antibody (3230S), anti-JAK3 antibody (8827S), anti-TYK2 antibody (14193S), anti-FLT3 antibody (3462S), anti-RET antibody (14556S), anti-phospho-STAT3 (Tyr705) antibody (9145S) and anti-phospho-STAT5 (Tyr694) antibody (4322S) were purchased from Cell Signaling Technology. Rabbit anti-GSPT1 antibody (ab126090) was purchased from Abcam. HRP-conjugated anti-α-tubulin antibody was produced in house. Media and other cell culture reagents were purchased from Thermo Fisher. The CellTiter-Glo Luminescent Assay kit was purchased from Promega.
Cultured cells were washed with cold PBS once and lysed in cold RIPA buffer supplemented with protease inhibitors and phosphatase inhibitors (Beyotime Biotechnology). […] Total protein concentrations in the lysates were determined by BCA assays (Beyotime Biotechnology). […] Protein bands were quantitated using the accompanied software provided by Bio-Rad.
Background: Immunoblotting shows a protein as a band on a membrane.

The molecule `O=C1CCC(N2C(=O)c3ccc(NCCCCCC(=O)N4CCC(n5cc(-c6cnc7cccc(-c8cc(F)c(CN9CCOCC9)c(F)c8)c7n6)cn5)CC4)cc3C2=O)C(=O)N1` (stereo not shown) [JA-189, 5-((6-(4-(4-(8-(3,5-difluoro-4-(morpholinomethyl)phenyl)quinoxalin-2-yl)-1H-pyrazol-1-yl)piperidin-1-yl)-6-oxohexyl)amino)-2-(2,6-dioxopiperidin-3-yl)isoindoline-1,3-dione] had an IC50 with HL-60 cells of 2.54 nM. In addition, the JAK3 protein level entry on JAK3 was “even better activity in reducing the JAK1 and JAK3 protein levels”.

Molecule `CS(=O)(=O)c1ccc(-c2cccc3nc(Nc4ccc(N5CCN(CC(=O)NCCCCCCCCNc6ccc7c(c6)C(=O)N(C6CCC(=O)NC6=O)C7=O)CC5)cc4)nn23)cc1` (stereo not shown) [JA-213] came in with a 50% inhibitory concentration (IC50) with HL-60 cells of 19.2 nM. Moreover, at JAK3, the JAK3 protein level entry is “even better activity in reducing the JAK1 and JAK3 protein levels”.

A word on the IC50: it is the midpoint of a concentration-inhibition curve. High values mean weaker potency in that assay, low ones greater potency in that assay.
